# According to patent US12492210B2, “Tricyclic compounds and their use” (HUTCHISON MEDIPHARMA LIMITED, priority 2019, dated 2025):
# Tests used:
# [1] = system: p-RSK (Thr359) in colo205 cells; assay: p-RSK (Thr359) Acumen Assay in Colo205; format: cell-based; details: Homo sapiens, COLO 205, 1 hour compound incubation, read-out: Example 19 IC50
# Protocol: Example 19: p-RSK (Thr359) Acumen Assay in Colo205
# • Phospho-p90RSK (Thr359) (D1E9) Rabbit mAb: cell signal, #8753 • Alexa Fluor® 488 donkey anti-rabbit IgG: invitrogen, #A-21206 • Propidium Iodide: Sigma, #p4170 • 4% Paraformaldehyde: SCRC, #DF021 • 10% Triton X-100: PIERCE, #28314 • 96-well plate (black with clear bottom): BD, #354640 • Acumen® eX3 (A Multilaser Microplate Cytometer For Enhanced High Content Screening): TTP LabTech 3. Acumen Assay Protocol • Seed 4000 cells in 100 μl 10% FBS/well into 96-well plate, incubate at 37° C., 5% CO2, overnight. • Dilute the compound to 3, 1, 0.33, 0.11, 0.037, 0.012, 0.004, 0.001 μM, keeping the DMSO concentration at 5%. Add 10 μl of diluted compound per well and incubate at 37° C., 5% CO2 for 1 hour. • Add 100 μl of 4% pre-warmed Paraformaldehyde (2% final), and incubate for 45 min at room temperature. • Remove paraformaldehyde solutions. Add 100 μl of ice-cold 0.1% Triton to fixed cells at room temperature for 30 min. • Wash twice with 150 μl PBS and incubate with 100 μl blocking buffer (1% BSA, in PBS) for 2˜3 hours at room temperature, seal the plate. • Wash once with PBS and incubate with 35 μl p-RSK (Thr359) (1:1000 dilution) overnight at 4° C. Seal the plate. • Wash twice with PBS and incubate for 1.5 hours at room temperature with 35 μl of Alexa Fluor® 488 donkey anti-rabbit IgG at a 1:1,000 dilution in antibody dilution buffer (0.1% BSA, in PBS). Cover plate in foil to keep out of light. • Wash twice with 150 μl PBS. Add 35 μl of 1.5 μM Propidium Iodide stock to each well to determine cell number, seal the plate. • Incubate at room temperature for 30 min. Load the plate into the Acumen Explorer and scan with the appropriate instrument settings. 4. Data Analysis
# [formula] Note: • Percentagecompound well represents the positive percentage of cells treated by compound. • Percentagemin well represents the positive percentage of cells treated with 3 uM GDC0994. • Percentagemax well represents the positive percentage of cells without compounds treatment. 5. IC50 Value: determine IC50 with add-in software for Microsoft Excel, XLfit™ (version 2.0) from ID Business Solutions (Guildford, UK)
# MAPK1(ERK2) enzyme = target: T1, MAPK1(ERK2) enzyme (Homo sapiens, UniProt P28482); assay: Z-Lyte Kinase Assay of ERK2; format: biochemical; details: read-out: Example 18 IC50
# T1 construct: purchased Invitrogen PV3313
# T1 sequence (P28482 whole entry): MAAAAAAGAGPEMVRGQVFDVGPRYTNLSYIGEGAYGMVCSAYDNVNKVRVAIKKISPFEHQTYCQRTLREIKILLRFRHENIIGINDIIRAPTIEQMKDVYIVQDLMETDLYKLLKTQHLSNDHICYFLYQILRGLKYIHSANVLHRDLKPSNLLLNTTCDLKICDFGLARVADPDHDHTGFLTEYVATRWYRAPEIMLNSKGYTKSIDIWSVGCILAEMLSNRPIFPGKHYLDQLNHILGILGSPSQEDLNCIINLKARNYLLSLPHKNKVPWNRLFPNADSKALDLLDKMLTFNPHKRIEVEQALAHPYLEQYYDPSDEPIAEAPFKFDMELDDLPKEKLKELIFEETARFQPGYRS
# Protocol: Example 18: Z-Lyte Kinase Assay of ERK2
# 1. Materials and Reagents:
# 2. Reaction Steps: Plate Map
# 3. Solution Preparation • 1) 1.33× Kinase Buffer: Dilute 5× Kinase Buffer to 1.33× with ddH2O • 2) 4× Test Compounds: Serially dilute the test compounds to 4 folds of the concentrations desired, keeping the DMSO concentration at 8%. The final concentrations are 1, 0.33, 0.11, 0.037, 0.012, 0.004, 0.0014, 0.00046 μM, and the final concentration of DMSO is 2%. • 3) Kinase/Peptide Mixture (P/K solution): Prepare Kinase/Peptide Mixture by diluting the kinase to 0.6 μg/ml and the Z-LYTE™ Ser/Thr3 peptide to 4 μM in 1.33× Kinase Buffer. Mix gently by pipetting. • 4) Phospho-peptide Solution (PP solution): Add 0.4 μl of Z-LYTE™ Ser/Thr3 Phospho-peptide to 99.6 μl of 1.33× Kinase Buffer. • 5) ATP Solution: Prepare ATP Solution by diluting the 10 mM of ATP in 1.33× Kinase Buffer to 100 μM. • 6) Development Solution: Dilute Development Reagent A with Development Buffer as 1:1024. 4. Reaction • 1) Kinase reaction (10 μl of Volume) • a. In a 384-well plate, add 2.5 μl of 4× test Cpds to each well except C1, C2, C3 wells Add 2.5 μl of 8% DMSO to C1, C2, C3 wells • b. Put the plate on ice • c. Add 5 μl of P/K mixture to each test Cpd wells and C1, C2 wells • d. Add 5 μl of PP Solution to C3 well • e. Add 2.5 μl of 1.33× kinase buffer to C1 and C3 wells • f. Add 2.5 μl of 4×ATP Solution to each test Cpd wells and C2 well, respectively. Shake the plate for 30 Sec and centrifuge (1500 rpm, 1 min) • g. Seal the plate to protect from the light and incubate the plate for 1 hour at RT (25-30° C.) • 2) Development reaction • a. Add 5 μl of the Development solution to all wells • b. Shake the plate for 30 sec and centrifuge (1500 rpm, 1 min) • c. Seal the plate to protect from the light and incubate the plate for 1 hour at RT (25-30° C.) • 3) Stop and read • a. Add 5 μl of the Stop reagent to all wells • b. Shake the plate for 30 sec and centrifuge (1500 rpm, 1 min) • c. Measure the value of coumarin (Ex400 nm, Em445 nm) and fluorescein (Ex400 nm, Em520 nm), respectively. 5. Data Analysis Emission Ratio(ER)=Coumarin Emission (445 nm)/Fluorescein Emission (520 nm) % Phosphorylation=1−[ER×C3520nm−C3445nm]/[(C1445nm−C3445nm)+ER×(C3520nm−C1520nm)] Inhibition rate (IR)=1−% Photest Cpd% PhoC2 6. IC50 Value: determine IC50 with add-in software for Microsoft Excel, XLfit™ (version 2.0) from ID Business Solutions (Guildford, UK)
IC50 [1] [nM],IC50 (MAPK1(ERK2) enzyme) [nM],SMILES
> 100,5 to 10,Cc1cnc(Nc2ccnn2C)cc1-c1cc2n(c1)C[C@H](CF)n1c-2nnc1C(F)(F)c1ccc(F)c(F)c1 [Compound 181]
≤ 100,> 10,Cc1cnc(Nc2ccnn2C)cc1-c1cc2n(c1)C[C@H](C(F)F)n1c-2nnc1C(F)(F)c1ccccc1F [Compound 179]
> 100,≤ 5,Cc1cnc(Nc2ccnn2C)nc1-c1cc2n(c1)[C@H](C)Cn1c-2nnc1C1(C(F)(F)F)CCC1 [Compound 48]
≤ 100,5 to 10,Cc1nonc1C(F)(F)c1nnc2n1[C@@H](C)Cn1cc(-c3cc(Nc4ccnn4C)ncc3Cl)cc1-2 [Compound 103]
≤ 100,> 10,Cn1nccc1Nc1cc(-c2cc3n(c2)C[C@H](C(F)F)n2c-3nnc2C(F)(F)c2ccccc2F)c(Cl)cn1 [Compound 208]
> 100,5 to 10,CC(C)Nc1cc(-c2cc3n(c2)CCCn2c-3nnc2C2(C(F)(F)F)CCC2)c(Cl)cn1 [Compound 230]
≤ 100,≤ 5,Cc1cnc(Nc2ccnn2C)nc1-c1cc2c3nnc(C4(C(F)(F)F)CCC4)n3c(C)cn2c1 [Compound 236]
≤ 100,≤ 5,Cn1nccc1Nc1cc(-c2cc3n(c2)CCCn2c(Cc4ccccc4C#N)nnc2-3)c(Cl)cn1 [Compound 27]
> 100,5 to 10,Cc1cnc(Nc2ccnn2C)nc1-c1cc2n(c1)C[C@H](C)n1c-2nnc1C(F)(F)c1c(F)cccc1F [Compound 130]
≤ 100,≤ 5,Cc1cnc(Nc2ccnn2C)nc1-c1cc2n(c1)CCn1c-2nnc1C(F)(F)c1ccccc1Cl [Compound 94]
≤ 100,≤ 5,Cn1nccc1Nc1cc(-c2cc3n(c2)CC(F)(F)Cn2c-3nnc2C2(C#N)CCC2)c(Cl)cn1 [Compound 74]
> 100,≤ 5,"Cn1nccc1Nc1nccc(-c2cc3n(c2)CCCn2c(CCc4ccccc4F)nnc2-3)n1 [Compound 1, 4-(3-(2-fluorophenethyl)-6,7-dihydro-5H-pyrrolo[1,2-a][1,2,4]triazolo[3,4-c][1,4]diazepin-10-yl)-N-(1-methyl-1H-pyrazol-5-yl)pyrimidin-2-amine]"
≤ 100,5 to 10,Cn1nccc1Nc1cc(-c2cc3n(c2)C[C@H](C(F)F)n2c-3nnc2C(F)(F)c2ccccc2F)c(F)cn1 [Compound 196]
≤ 100,≤ 5,"Cn1nccc1Nc1cc(-c2cc3n(c2)CC(F)(F)Cn2c(Cn4cccc4C#N)nnc2-3)c(Cl)cn1 [Compound 217, 1-((10-(5-chloro-2-((1-methyl-1H-pyrazol-5-yl)amino)pyridin-4-yl)-6,6-difluoro-6,7-dihydro-5H-pyrrolo[1,2-a][1,2,4]triazolo[3,4-c][1,4]diazepin-3-yl)methyl)-1H-pyrrole-2-carbonitrile]"
≤ 100,≤ 5,Cn1nccc1Nc1ncc(Cl)c(-c2cc3n(c2)CCCn2c(COC4(C(F)(F)F)CCC4)nnc2-3)n1 [Compound 213]
≤ 100,≤ 5,Cc1cnc(Nc2ccnn2C(F)F)cc1-c1cc2n(c1)CCCn1c-2nnc1C1(C(F)(F)F)CCC1 [Compound 263]
> 100,> 10,"C[C@H](Oc1ccccc1F)c1nnc2n1CC(C)(C)Cn1cc(-c3ccnc(Nc4ccnn4C)n3)cc1-2 [Compound 44, (S)-4-(3-(1-(2-fluorophenoxy)ethyl)-6,6-dimethyl-6,7-dihydro-5H-pyrrolo[1,2-a][1,2,4]triazolo[3,4-c][1,4]diazepin-10-yl)-N-(1-methyl-1H-pyrazol-5-yl)pyrimidin-2-amine]"

IC50 [1] [nM],IC50 (MAPK1(ERK2) enzyme) [nM],SMILES
≤ 100,≤ 5,Cn1nccc1Nc1cc(-c2cc3n(c2)CC(F)(F)Cn2c-3nnc2C2(C(F)(F)F)CC2)c(Cl)cn1 [Compound 140]
≤ 100,5 to 10,Cc1cnc(Nc2ccnn2C)nc1-c1cc2n(c1)C[C@H](CF)n1c-2nnc1C(F)(F)c1ccc(F)cc1F [Compound 188]
> 100,5 to 10,Cc1cnc(Nc2ccnn2C)cc1-c1cc2n(c1)C[C@H](CF)n1c-2nnc1C(F)(F)c1noc2ccccc12 [Compound 197]
≤ 100,≤ 5,Cc1cnc(Nc2ccnn2C)nc1-c1cc2n(c1)CC1(CC1)n1c-2nnc1C1(C(F)(F)F)CCC1 [Compound 250]
≤ 100,5 to 10,Cc1cnc(Nc2ccnn2C)cc1-c1cc2n(c1)C[C@H](CF)n1c-2nnc1C(F)(F)c1ccccc1F [Compound 126]
≤ 100,≤ 5,Cn1nccc1Nc1cc(-c2cc3n(c2)C[C@H](F)Cn2c-3nnc2C2(C(F)(F)F)CCC2)c(F)cn1 [Compound 85]
≤ 100,≤ 5,Cc1cnc(Nc2ccnn2C)nc1-c1cc2c3nnc(C4(C(F)F)CCC4)n3ccn2c1 [Compound 45]
> 100,≤ 5,Cc1cnc(Nc2ccnn2C)nc1-c1cc2n(c1)CCn1c-2nnc1C1(C(F)(F)F)CCC1 [Compound 5]
≤ 100,≤ 5,Cc1cnc(Nc2ccnn2C)cc1-c1cc2n(c1)CC(F)(F)Cn1c-2nnc1C(F)(F)C(F)F [Compound 78]
≤ 100,5 to 10,Cn1nccc1Nc1cc(-c2cc3n(c2)CCCn2c(Nc4ccccc4F)nnc2-3)c(Cl)cn1 [Compound 43]
≤ 100,≤ 5,Cn1nccc1Nc1nccc(-c2cc3n(c2)C[C@H](C(F)F)n2c-3nnc2C(F)(F)c2ccccc2F)n1 [Compound 149]
> 100,≤ 5,Cn1nccc1Nc1cc(-c2cc3n(c2)CCCn2c-3nnc2C2(C(F)(F)F)CC2)c(Cl)cn1 [Compound 21]
≤ 100,> 10,Cn1nccc1Nc1cc(-c2cc3n(c2)CCCn2c(Cc4c(F)cccc4Cl)nnc2-3)c(Cl)cn1 [Compound 33]
≤ 100,5 to 10,Cn1nccc1Nc1cc(-c2cc3n(c2)C[C@H](CF)n2c-3nnc2C(F)(F)c2ccccc2F)ccn1 [Compound 96]
≤ 100,5 to 10,C[C@H]1Cn2cc(-c3cc(Nc4ccnn4C)ncc3Cl)cc2-c2nnc(C(F)(F)n3cc(Cl)cn3)n21 [Compound 157]
> 100,≤ 5,Cn1nccc1Nc1cc(-c2cc3n(c2)CC(F)(F)Cn2c(Cn4cc(F)cc4C#N)nnc2-3)c(Cl)cn1 [Compound 219]
